Reference: US20250304717A1, “CAMPTOTHECIN DERIVATIVE AND LIGAND-DRUG CONJUGATE” (HAINAN SIMCERE ZAIMING PHARMACEUTICAL CO., LTD., priority 2022, published 2025)
Where two headings read alike, the source gives them in different places.

Experiments:
OVCAR3 cells = assay: Anti-tumor cell proliferation activity of compound of formula (D-H), Cell-Titer Glo, OVCAR3; format: cell-based; conditions: Homo sapiens, OVCAR-3, 120 h
Method: (§1) Cell culture: HCT116 cells and SKBR3 cells were cultured with a McCoy's 5a medium containing 10% fetal bovine serum+1% penicillin-streptomycin at 37° C. with 5% CO2, and OVCAR3 cells were cultured with a 1640 medium containing 20% fetal bovine serum+2 μg/mL bovine insulin+1% penicillin-streptomycin at 37° C. with 5% CO2. Cells at logarithmic growth phase were available for the experiment.
(§2) Cell proliferation activity test: The Cell-Titer Glo reagent was used to test the compound for inhibitory activity on proliferation of the three cell strains HCT116, SKBR3, and OVCAR3. HCT116 cells (1500 per well), SKBR3 cells (3000 per well), and OVCAR3 cells (5000 per well) were seeded on 96-well plates and incubated at 37° C. with 5% CO2 for 24 h. After a solution of the compound to be detected was added (the compound was dissolved in DMSO so that the compound concentration was 1 mM, then the compound was diluted to […] in DMSO at 9 concentrations in a 3-fold dilution, and 10 μL of the prepared compound solution was transferred to the 96-well plate so that the final concentration was 0-300 nM), the mixture was incubated at 37° C. with 5% CO2. HCT116 cells were cultured for 3 days, and SKBR3 cells and OVCAR3 cells were cultured for 5 days. The Cell-Titer Glo reagent was added and the cell activity was measured.
(§3) A negative control group and a positive control group were respectively used as Bottom and Top. The negative control group was not added with cells, only added with the culture medium in the same volume, and other operations were consistent with those of the experimental group. The positive control group was not added with the test drug, and other operations were consistent with those of the experimental group.
(§4) Data analysis: % Inhibition was calculated, and compound IC50 was fitted.
(§5) % Inhibition=1-100%×(Signal−Bottom)/(Top−Bottom).
(§6) Signal referred to the signal value of the experimental group, Bottom referred to the average signal value of the negative control group, and Top referred to the average signal value of the positive control group.

HCT116 cells = assay: Anti-tumor cell proliferation activity of compound of formula (D-H), Cell-Titer Glo, HCT116; format: cell-based; conditions: Homo sapiens, HCT-116, 72 h
Method: as §1, §2, §3, §4, §5, §6

SKBR3 cells = assay: Anti-tumor cell proliferation activity of compound of formula (D-H), Cell-Titer Glo, SKBR3; format: cell-based, human; conditions: Homo sapiens, SK-BR-3, 120 h
Method: as §1, §2, §3, §4, §5, §6

[1] = read-out: OVCAR3 Antiproliferative activity IC50 (nM)
[2] = read-out: HCT116 Antiproliferative activity IC50 (nM), HCT116 cells, 3 days
[3] = read-out: SKBR3 Antiproliferative activity IC50 (nM), SKBR3 cells, 5 days

Row | SMILES | IC50 (OVCAR3 cells; [1]) | IC50 (HCT116 cells; [2]) | IC50 (SKBR3 cells; SKBR3 cells, 5 days, read-out: SKBR3 Antiproliferative activity IC50) | IC50 (SKBR3 cells; [3]) | IC50 (OVCAR3 cells; OVCAR3 cells, 5 days, read-out: OVCAR3 Antiproliferative activity IC50) | IC50 (HCT116 cells; HCT116 cells, 3 days, read-out: HCT116 Antiproliferative activity IC50)
1 | CC[C@@]1(O)C(=O)OCc2c1cc1n(c2=O)Cc2c-1nc1cc3c(cc1c2CNC(=O)[C@@H](O)C1CC1)OCO3 [Compound 14-P1, (S)-2-cyclopropyl-N—(((S)-7-ethyl-7-hydroxy-8,11-dioxo-7,8,11,13-tetrahydro-10H-[1,3]dioxolo[4,5-g]pyrano[3′,4′:6,7]indolizino[1,2-b]quinolin-14-yl)methyl)-2-hydroxyacetamide] | 0.6 nM | < 10 nM | 2.1 nM |  |  | 
2 | CC[C@@]1(O)C(=O)OCc2c1cc1n(c2=O)Cc2c-1nc1cc3c(c(Cl)c1c2CNC(=O)CO)OCO3 [Compound 31, (S)-N-((15-chloro-7-ethyl-7-hydroxy-8,11-dioxo-7,8,11,13-tetrahydro-10H-[1,3]dioxolo[4,5-g]pyrano[3′,4′:6,7]indolizino[1,2-b]quinolin-14-yl)methyl)-2-hydroxyacetamide] | 0.2 nM | < 10 nM |  |  |  | 
3 | CC[C@@]1(O)C(=O)OCc2c1cc1n(c2=O)Cc2c-1nc1cc(F)c(Cl)c(F)c1c2CNC(=O)CO [Compound 21, (S)-N-((9-chloro-4-ethyl-8,10-difluoro-4-hydroxy-3,14-dioxo-3,4,12,14-tetrahydro-1H-pyrano[3′,4′:6,7]indolizino[1,2-b]quinolin-11-yl)methyl)-2-hydroxyacetamide] | 1.7 nM | < 10 nM |  | 4 nM |  | 
4 | [2H]C1([2H])Oc2cc3nc4c(c(CNC(=O)[C@@H](O)C5CC5)c3cc2O1)Cn1c-4cc2c(c1=O)COC(=O)[C@]2(O)CC [Compound 19-P2, 2-cyclopropyl-N—(((S)-7-ethyl-7-hydroxy-8,11-dioxo-7,8,11,13-tetrahydro-10H-[1,3]dioxolo[4,5-g]pyrano[3′,4′:6,7]indolizino[1,2-b]quinolin-14-yl-2,2-d2)methyl)-2-hydroxyacetamide] |  |  |  |  | 1 nM | < 10 nM
5 | CC[C@@]1(O)C(=O)OCc2c1cc1n(c2=O)Cc2c-1nc1cc(Cl)c(C)cc1c2CNC(=O)CO [Compound 6, (S)-N-((8-chloro-4-ethyl-4-hydroxy-9-methyl-3,14-dioxo-3,4,12,14-tetrahydro-1H-pyrano[3′,4′:6,7]indolizino[1,2-b]quinolin-11-yl)methyl)-2-hydroxyacetamide] | 2.1 nM |  |  | 4.8 nM |  | 
6 | CC[C@@]1(O)C(=O)OCc2c1cc1n(c2=O)Cc2c-1nc1cc(F)c(Cl)c(F)c1c2CNC(=O)C(C)(C)O [Compound 22, (S)-N-((9-chloro-4-ethyl-8,10-difluoro-4-hydroxy-3,14-dioxo-3,4,12,14-tetrahydro-1H-pyrano[3′,4′:6,7]indolizino[1,2-b]quinolin-11-yl)methyl)-2-hydroxy-2-methylpropanamide] | 1.4 nM | < 10 nM |  | 3.5 nM |  | 
7 | CC[C@@]1(O)C(=O)OCc2c1cc1n(c2=O)Cc2c-1nc1cc3c(cc1c2CNC(=O)C(O)C1CC1)OCO3 (stereo partly drawn) [Compound 14, 2-cyclopropyl-N—(((S)-7-ethyl-7-hydroxy-8,11-dioxo-7,8,11,13-tetrahydro-10H-[1,3]dioxolo[4,5-g]pyrano[3′,4′:6,7]indolizino[1,2-b]quinolin-14-yl)methyl)-2-hydroxyacetamide] | 0.9 nM | < 10 nM |  | 2.2 nM |  | 
8 | CC[C@@]1(O)C(=O)OCc2c1cc1n(c2=O)Cc2c-1nc1cc(Cl)c3c(c1c2CNC(=O)CO)CCC3 [Compound 33, (S)-N-((4-chloro-8-ethyl-8-hydroxy-9,12-dioxo-2,3,8,9,12,14-hexahydro-1H,11H-cyclopenta[f]pyrano[3′,4′:6,7]indolizino[1,2-b]quinolin-15-yl)methyl)-2-hydroxyacetamide] | 0.8 nM | < 10 nM |  |  |  | 
9 | CC[C@@]1(O)C(=O)OCc2c1cc1n(c2=O)Cc2c-1nc1ccc3c(c1c2CNC(=O)C(O)C1CC1)CCC3 (stereo partly drawn) [Compound 13, 2-cyclopropyl-N—(((S)-8-ethyl-8-hydroxy-9,12-dioxo-2,3,8,9,12,14-hexahydro-1H,11H-cyclopenta[f]pyrano[3′,4′:6,7]indolizino[1,2-b]quinolin-15-yl)methyl)-2-hydroxyacetamide] | 0.7 nM | < 10 nM |  |  |  | 
